From paper PMC11354745, “Discovery of Novel Amino Acids (Analogues)-Substituted Thiophene[3,2-d]pyrimidine Derivatives as Potent HIV-1 Non-Nucleoside Reverse Transcriptase Inhibitors: Design, Synthesis, and Biological Evaluation” (International Journal of Molecular Sciences, 2024)
Like-named read-outs stand apart in the source and are kept apart here.

Tests used:
[1] = test system: HIV-1 wild-type (WT) strain (IIIB); assay: Anti-HIV activity in MT-4 cells (MTT method), HIV-1 IIIB; type: cell-based; conditions: for EC50: Human immunodeficiency virus 1, IIIB, MT4, read-out: EC50 IIIB; for SI IIIB: selectivity index, ratio CC50/EC50, IIIB
Protocol: (§1) All the target compounds were first evaluated for their antiviral activity against HIV-1 wild-type (WT) strain (IIIB) and the double-mutant strain K103N+Y181C (RES056) in the MT-4 cell line, using the MTT method.
(§2) The antiviral potential and cytotoxic effects of the target compounds were assessed using the MTT assay in MT-4 cells, following established protocols. The HIV-1 (IIIB) strain, single mutant strains (L100I, K103N, Y181C, Y188L and E138K), double mutant strains (F227L + V106A and K103N + Y181C) and MT-4 cells were provided by the Rega Institute of Medicine at the University of Leuven, Belgium. These viral strains were propagated in MT-4 cells. […] The specific experimental procedures are detailed below.
(§3) Initially, concentrated solutions of the test compounds were prepared at 10-fold the final desired concentration and added to triplicate wells in 25 µL aliquots to assess their impacts on both mock and HIV-infected MT-4 cells. Using a Biomek 3000 robot, these were diluted in a 96-well flat-bottomed microplate by mixing with medium, creating a series of 5-fold steps down in concentration. Each test included control groups of untreated infected and mock-infected cells to establish baselines for comparison. […] These strains served to mimic both typical and resistant infections. Additionally, mock-infected wells received an equal volume of culture medium to assess the compounds’ impacts on uninfected cells, thereby determining cytotoxicity. MT-4 cells in the exponential growth phase were pelleted by centrifugation at 1000 rpm for 5 min, after which the supernatant was removed. The cells were resuspended to a density of 6 × 10^5 cells/mL, and 50 µL of this suspension was added to each well. Post-infection, on the fifth day, cell viability in both mock and infected conditions was measured via the MTT assay using a spectrophotometer.

[2] = test system: HIV-1 double-mutant strain K103N+Y181C (RES056); assay: microbe, parasite or virus in culture; type: cell-based; conditions: for EC50: Human immunodeficiency virus 1, MT4, read-out: EC50 RES056; for SI RES056: selectivity index, ratio CC50/EC50, RES056
Protocol: as §1, §2, §3

[3] = test system: HIV-1 E138K mutant strain; assay: Anti-HIV activity in MT-4 cells (MTT method), E138K; type: cell-based; conditions: for EC50: Human immunodeficiency virus 1, MT4, read-out: EC50 E138K
From the text: (§4) All the target compounds were first evaluated for their antiviral activity against HIV-1 wild-type (WT) strain (IIIB) and the double-mutant strain K103N+Y181C (RES056) in the MT-4 cell line, using the MTT method. The potent inhibitors were selected to assess their efficacy against other strains resistant to NNRTIs, including L100I, K103N, Y181C, Y188L, E138K and the double-mutant strain F227L+V106A. The approved drugs NVP, EFV and ETR were selected as reference drugs. The biological evaluation results of the test compounds, presented as EC50 (anti-HIV potency), CC50 (cytotoxicity) and SI (selectivity index, CC50/EC50 ratio), are summarized in Table 1 and Table 2.
(§5) The antiviral potential and cytotoxic effects of the target compounds were assessed using the MTT assay in MT-4 cells, following established protocols. The HIV-1 (IIIB) strain, single mutant strains (L100I, K103N, Y181C, Y188L and E138K), double mutant strains (F227L + V106A and K103N + Y181C) and MT-4 cells were provided by the Rega Institute of Medicine at the University of Leuven, Belgium. These viral strains were propagated in MT-4 cells. The MT-4 cells were cultured in RPMI-1640 medium supplemented with 20 mM HEPES buffer (Life Technologies, Grand Island, NY, USA), 10% (v/v) heat-inactivated fetal calf serum (FCS), 2 mM L-glutamine, 0.1% sodium bicarbonate, and 20 μg/mL gentamicin. Cultures were maintained at 37 °C in a 5% CO2 atmosphere. The specific experimental procedures are detailed below.
(§6) Initially, concentrated solutions of the test compounds were prepared at 10-fold the final desired concentration and added to triplicate wells in 25 µL aliquots to assess their impacts on both mock and HIV-infected MT-4 cells. Using a Biomek 3000 robot, these were diluted in a 96-well flat-bottomed microplate by mixing with medium, creating a series of 5-fold steps down in concentration. Each test included control groups of untreated infected and mock-infected cells to establish baselines for comparison. We introduced HIV-1 strains, both wild-type (IIIB) and drug-resistant variants harboring mutations L100I, K103N, Y181C, Y188L, E138K and F227L + V106A and the double mutant K103N + Y181C (RES056), at concentrations of 100–300 CCID50, into their respective wells. These strains served to mimic both typical and resistant infections. Additionally, mock-infected wells received an equal volume of culture medium to assess the compounds’ impacts on uninfected cells, thereby determining cytotoxicity. MT-4 cells in the exponential growth phase were pelleted by centrifugation at 1000 rpm for 5 min, after which the supernatant was removed. The cells were resuspended to a density of 6 × 10^5 cells/mL, and 50 µL of this suspension was added to each well. Post-infection, on the fifth day, cell viability in both mock and infected conditions was measured via the MTT assay using a spectrophotometer. The CC50 was identified as the concentration of the compound that caused a 50% reduction in the viability of the mock-infected cells, indicating cytotoxicity. Conversely, the EC50 represented the concentration that provided 50% protection against viral cytopathic effects in infected cells, signifying antiviral potency.

[4] = test system: HIV-1 L100I mutant strain; assay: Anti-HIV activity in MT-4 cells (MTT method), L100I; type: cell-based; conditions: Human immunodeficiency virus 1, MT4, read-out: EC50 L100I
From the text: as §4, §5, §6

[5] = test system: HIV-1 K103N mutant strain; assay: Anti-HIV activity in MT-4 cells (MTT method), K103N; type: cell-based; conditions: Human immunodeficiency virus 1, MT4, read-out: EC50 K103N
From the text: as §4, §5, §6

[6] = biological target: T1, WT HIV-1 RT (Human immunodeficiency virus type 1 group M subtype B, UniProt P03366); assay: HIV-1 RT inhibition assay (Roche kit, ELISA); type: biochemical
T1 construct: viral nucleotides (dNTPs) and the HIV-1 RT enzyme in an incubation buffer; purchased Roche
From the text: An assay kit for HIV-1 reverse transcriptase (RT) from Roche was utilized to assess RT inhibition. The kit provided all necessary components for the RT reaction, and the enzyme-linked immunosorbent assay (ELISA) methodology for the inhibition assay was executed according to the kit’s instructions. […] Unbound dNTPs were washed away, and an anti-[…] (DIG)-POD working solution was introduced. […] Excess anti-DIG-POD was removed, and a peroxidase substrate (ABTS) solution was applied to the MTPs. […] The percentage of the inhibitory activity of the RT inhibitors was calculated by formula, as given below:
% Inhibition = [O.D. value with RT but without inhibitors − O.D. value with RT and inhibitors]/[O.D. value with RT […] − O.D. value without RT and inhibitors].

[7] = test system: HIV-1 Y181C mutant strain; assay: Anti-HIV activity in MT-4 cells (MTT method), Y181C; type: cell-based; conditions: Human immunodeficiency virus 1, MT4, read-out: EC50 Y181C
From the text: as §4, §5, §6

[8] = Cytotoxicity in mock-infected MT-4 cells (MTT method); type: cell-based; conditions: human, CC50
Protocol: as §5, §6

[9] = test system: HIV-1 double-mutant strain F227L+V106A; assay: Anti-HIV activity in MT-4 cells (MTT method), F227L+V106A; type: cell-based; conditions: Human immunodeficiency virus 1, MT4, read-out: EC50 F227L/V106A
From the text: as §4, §5, §6

[10] = test system: HIV-1 Y188L mutant strain; assay: Anti-HIV activity in MT-4 cells (MTT method), Y188L; type: cell-based; conditions: Human immunodeficiency virus 1, MT4, read-out: EC50 Y188L
From the text: as §4, §5, §6

[11] = test system: HIV-1 wild-type (WT) and a panel of NNRTI-resistant strains; assay: Anti-HIV activity in MT-4 cells (MTT method), WT and panel of NNRTI-resistant strains; type: cell-based
From the text: as §4
The antiviral potential and cytotoxic effects of the target compounds were assessed using the MTT assay in MT-4 cells, following established protocols. […]
Initially, concentrated solutions of the test compounds were prepared at 10-fold the final desired concentration and added to triplicate wells in 25 µL aliquots to assess their impacts on both mock and HIV-infected MT-4 cells. […] Post-infection, on the fifth day, cell viability in both mock and infected conditions was measured via the MTT assay using a spectrophotometer. […]

[12] = test system: MT-4 cells; assay: Cytotoxicity in mock-infected MT-4 cells (MTT method); type: cell-based; conditions: human, 5 days
Protocol: as §5, §6

| SMILES | EC50 [1] | SI IIIB [1] | EC50 [2] | SI RES056 [2] | EC50 [3] | EC50 [4] | EC50 [5] | IC50 [6] | EC50 [7] | melting point | CC50 at 5 days [8] | EC50 [9] | EC50 [10] | fold superior to NVP, E138K ([3]; ratio of EC50 values against E138K, versus NVP) | EC50 ([11]; Human immunodeficiency virus 1, MT4, read-out: EC50 values against HIV-1 WT and a panel of NNRTI-resistant strains, range over strains, MT-4 cells) | EC50 ([11]; read-out: EC50 values against HIV-1 WT and a panel of NNRTI-resistant strains, range over strains, MT-4 cells) | CC50 [12] |
| --- | --- | --- | --- | --- | --- | --- | --- | --- | --- | --- | --- | --- | --- | --- | --- | --- | --- |
| Cc1cc(C#N)cc(C)c1Oc1nc(Nc2ccc(NC(=O)[C@@H](N)Cc3c[nH]cn3)cc2)nc2ccsc12 [5e] | 52 ± 22 nM | 484 | ≥ 4880 nM | ≤5 | 260 ± 75 nM | 902 ± 311 nM | 35 ± 9 nM | 927 ± 64 nM | 2580 ± 477 nM | 158 to 160 °C | 25100 ± 2300 nM | 1460 ± 979 nM | 2260 ± 733 nM | – | – | – | – |
| Cc1cc(C#N)cc(C)c1Oc1nc(Nc2ccc(NC(=O)[C@@H](N)Cc3ccccc3)cc2)nc2ccsc12 [5h] | 55 ± 12 nM | 429 | 8470 ± 483 nM | 3 | 679 ± 569 nM | 1830 ± 208 nM | 73 ± 16 nM | 1540 ± 119 nM | 2720 ± 422 nM | 203 to 206 °C | 23700 ± 521 nM | 2110 ± 293 nM | 2390 ± 352 nM | – | – | – | – |
| Cc1cc(C#N)cc(C)c1Oc1nc(Nc2ccc(NC(=O)[C@@H](N)C(C)C)cc2)nc2ccsc12 [5i] | 42 ± 8 nM | 157 | ≥ 6620 nM | ≤1 | 247 ± 107 nM | 1200 ± 218 nM | 45 ± 10 nM | 1350 ± 148 nM | > 6540 nM | 184 to 187 °C | 6540 ± 1340 nM | 3030 ± 1760 nM | 6910 ± 944 nM | – | – | – | – |
| Cc1cc(C#N)cc(C)c1Oc1nc(Nc2ccc(NC(=O)C3CCCN3)cc2)nc2ccsc12 (centres unmarked) [5k] | 54 ± 18 nM | 513 | 7530 ± 280 nM | 4 | 94 ± 22 nM | 601 ± 261 nM | 31 ± 4 nM | 1120 ± 74 nM | 1850 ± 621 nM | 227 to 230 °C | 27900 nM | 1760 ± 686 nM | 2360 ± 57 nM | ~1.9 fold | 42 to 7530 nM | 31 to 2360 nM | 27900 ± 910 nM |
| Cc1cc(C#N)cc(C)c1Oc1nc(Nc2ccc(NC(=O)[C@H](N)CC(C)C)cc2)nc2ccsc12 [5n] | 62 ± 19 nM | 391 | 5500 ± 1360 nM | 4 | 231 ± 154 nM | 2120 ± 455 nM | 131 ± 4 nM | 2390 ± 86 nM | 2160 ± 57 nM | – | 24300 ± 4280 nM | 2030 ± 1180 nM | 2110 ± 288 nM | – | – | – | – |
